Laboratory results as given in US8053392B2, “Auxin acid-catalyzed stable microemulsion pesticide formulation” (PBI/Gordon Corporation, priority 2007, dated 2011).

Test: Chemical stability tests of active ingredients in microemulsion formulations at 40° C. for one month
Type: physicochemical
Experimental: Chemical stability tests were conducted on four-way active ingredient microemulsion formulations at 40° C. for one month to determine the active ingredient percent difference at the end of one month.
Other formulations were subjected to accelerated chemical stability tests at a temperature of 40° C. for a period of one month to determine total chemical stability of the active ingredients.
Only the chemical stability of pyraflufen-ethyl was analyzed because of its susceptibility to hydrolysis, as set forth in Examples 13-16.

[1] = four-way microemulsion of Example 11
[2] = four-way microemulsion of Example 12

Row | Compound | Chemical Stability (active ingredient percent difference) [1] | Chemical Stability (active ingredient percent difference) [2] | Pyraflufen-ethyl Chemical Stability (formulation of Example 13 (2,4-D acid 9.0%, Dicamba […], Pyraflufen-ethyl 0.6%)) | Pyraflufen-ethyl Chemical Stability (formulation of Example 14 (2,4-D acid 9.0%, R(+)MCPP 1.63%, Pyraflufen-ethyl 0.6%)) | Pyraflufen-ethyl Chemical Stability (formulation of Example 15 (2,4-D acid 9.0%, R(+)MCPP 1.63%, Dicamba […], Pyraflufen-ethyl 0.6%)) | Pyraflufen-ethyl Chemical Stability (formulation of Example 16 (2,4-D acid 9.0%, Pyraflufen-ethyl 0.1%))
1 | CCCCC(CC)COC(=O)COc1ccc(Cl)cc1Cl (stereo not shown) [2,4-D 2EHE, 2,4-D 2-ethyl hexyl ester] | +1.25% | +2.02% |  |  |  | 
2 | CCOC(=O)COc1cc(-c2nn(C)c(OC(F)F)c2Cl)c(F)cc1Cl [Pyraflufen-ethyl] | +1.44% | −0.90% | +5.89% | +1.05% | +1.07% | +0.93%
3 | O=C(O)COc1nc(Cl)c(Cl)cc1Cl [Triclopyr] | +1.94% | +2.38% |  |  |  | 
